Source: publication PMC6163344, “A Novel Cell Penetrating Peptide for the Differentiation of Human Neural Stem Cells” (Biomolecules, 2018)
pIC50: −log10 of the molar value.

Key:
[1] = system: ReNcell VM (RVM) cells; conditions: PrestoBlue, N = 3
[2] = system: β-III tubulin expression in ReNcell VM; assay: RVM differentiation, quantitative immunocytochemistry for β-III tubulin; format: cell-based, human; conditions: 0.1 µM, N = 3
Description: (§1) The laminin solution was removed prior to cell seeding. 2 × 10^4 ReNcell VM between passages 8 and 10 were seeded in the 8-well chamber slides with 400 µL of proliferation media. The cells were grown to 70% confluency. Differentiation for RVM is initiated by growth factor withdrawal or in combination with RA or RA-PepB3. The media were replaced every 48–72 h for the duration of the differentiation. Compound treatment was only performed for one week, at which point all cells were commonly grown in growth factor withdrawal media.
(§2) Cells were fixed with 4% PFA at room temperature for 15 min. After rinsing with PBS, blocking and permeabilization were done simultaneously using 5% donkey serum and 0.3% Triton-X 100 in PBS for 30 min at room temperature. The cells were rinsed with PBS and primary antibodies were applied for 2 h at room temperature. The cells were rinsed again with PBS and secondary antibodies were applied for 1 h at room temperature. […] The cells positive for β-III tubulin and MAP2 were counted using ImageJ. […] The fluorescence channels were separated, background removed, and contrast enhanced. The number of DAPI positive cells were counted using an in-house coded nuclei counter. […] The channels were then re-merged and the cells positive for β-III tubulin and MAP2 were manually counted. […]

[3] = set-up: method as in PMID 1898007; conditions: reported solubility limit in water; cited from earlier work
Description: Neurogenesis is an important biological process under intense investigation. Neurodegenerative diseases such as Alzheimer’s and Parkinson’s are devastating due to the fact that neurons cannot be replaced in the diseased areas of the brain [1]. […] To exert its effects ... || Retinoic acid is a potent morphogen used to differentiate stem cells towards the neural lineage.

[4] = system: undifferentiated RVM cells cultured in Matrigel; conditions: microarray chip, read-out: viability IC50; cited from earlier work
[5] = system: ReNcell VM (RVM) cells; assay: 24 h cytotoxicity, CCK-8 (WST-8) or PrestoBlue; format: cell-based, human; conditions: 24 h treatment
Description: Sterile peptide solutions for cytotoxicity testing were prepared from stock by diluting with deionized (DI) water and filtering through a 0.22 µm polytetrafluoroethylene (PTFE) membrane. Because of aggregations and decreased solubility in water at high concentrations, a standard curve was used to determine the concentrations of the filtered peptides. Briefly, 5 µL of sample or serial diluted peptide stocks with known concentrations prepared from weighed powder, were aliquoted into wells of a 96-well half area plate. Then, 45 µL of methanol was added to each well to fully solubilize all the peptides. Absorbance measurements at 554 nm (650 nm as reference) were taken on a Tecan infinite M200 Pro plate reader (Tecan Group, Männedorf, Switzerland). After the calculation of stock concentrations, peptides were further diluted with cell culture media for treatment.
There were 10,000 ReNcell VM cells (passages below 15) that were seeded in each well, with 100 µL of RVM cell culture media supplemented with the growth factors bFGF and EGF.
For the PepB series (Figure 1 and Table 1) testing, the RVM cells were incubated with peptides for 24 h. […] After incubation for 1 h, for WST-8, a Tecan infinite M200 Pro plate reader was utilized to acquire absorbance measurements at 450 nm (650 nm as reference) and normalized to the untreated controls.

[6] = system: MAP2 expression in ReNcell VM; assay: RVM differentiation, quantitative immunocytochemistry for MAP2; format: cell-based, human; conditions: 0.1 µM, compound treatment for the initial one week, four weeks of differentiation, N = 3
Description: as §1, §2

CC1=C(/C=C/C(C)=C/C=C/C(C)=C/C(=O)O)C(C)(C)CCC1 [RA, All-Trans-Retinoic Acid]
proliferation versus controls after 24 h ([1]; 5 and 10 µM RA): significantly less proliferation than the controls
proliferation versus controls by day three ([1]; all tested concentrations of RA, medium refreshed every 48 h): significantly reduced rates of proliferation
β-III tubulin expression, fold versus growth factor withdrawal control ([2]; compound treatment for the initial one week, four weeks of differentiation): 2 fold
β-III tubulin expression, fold versus no growth factor control ([2]; one week of differentiation): 1.5 fold
solubility in aqueous environments [3]: < 0.2 µM
pIC50 [4]: 6.13
fraction of RVM cells killed ([5]; 10 µM, PrestoBlue or Cell Counting Kit-8, N = 3): more than 50%
concentration at which RVM cells started significantly dying ([5]; 0–10 µM tested, N = 3): 5 µM
MAP2 expression, fold versus control [6]: 2.5 fold
